What was measured:
dentate gyrus = assay: BrdU/DAB quantification of dividing cells in the dentate gyrus after long-term study; type: in vivo, mice; conditions: for number of dividing cells (BrdU+) in the dentate gyrus: 25 mg/kg i.p. 42 days; for number of dividing cells (BrdU+) in the dentate gyrus, overall statement: running and non-running groups
Procedure: Injections were administered intraperitoneally (i.p.) for forty-two days total. In addition to test injections, daily i.p. injections of 5-bromo-2-deoxyuridine (BrdU) [10 mg/ml] were administered for the first eight days at a dose of 50 mg/kg. Within each test group, eight mice were randomly selected to receive running exercise. These thirty-two mice (eight mice per injection group) were transferred daily (on Days 1-40 of the study) from their normal static housing to an automated voluntary running wheel cage for two hours a day. Non-running mice remained in their static cages throughout the study. After the long-term study of Example 1 and all behavioral testing was concluded (Day 42), mice were perfused using 4% paraformaldehyde and their brain tissue was extracted. Brain tissue was sectioned and stained for BrdU/DAB quantification of dividing cells. A second immunofluorescence stain was used for phenotyping of the newly dividing cells. Brain sections were also taken and stained with Brdu/NeuN/GFAP. Phenotype analysis was completed to determine the percentage of dividing cells co-labeled with NeuN, a marker used to identify mature neurons. Using the percentage, it was possible to calculate the total number of BrdU/NeuN co-labeled cells in the dentate gyrus.

mice = assay: Object recognition, visual paired comparison task (VPC); type: in vivo
Procedure: Each mouse receiving either apigenin 25 mg/kg or Tween 80:0.9% NaCl (control) solutions was administered an i.p. injection of either drug or control for 7 days, after which they were trained and tested on visual paired comparison task (VPC) behavioral assay. The paradigm consisted of habituation to the experimental room for two hours prior to the experiment on Days 1 and 2. After habituation on Day 1, mice were given a five minute exposure to the testing chamber, followed by a thirty second exploration of two identical objects (familiarization training). Twenty-four hours after the familiarization training, mice were once again re-habituated to the room and testing chamber for two hours and one minute, respectively. After re-habituation mice were placed back into the testing chamber and allowed to explore a familiar and novel object for five minutes. Object exploration times were measured for both familiar and novel objects on Days 1 and 2. Both objects were identical, but the “novel” object was in a different location.

[1] = test system: Adult neural progenitor cells; assay: Immunohistochemistry with lineage-specific markers (Tuj 1, GFAP, RIP); type: cell-based
Procedure: Adult neural progenitor cells were plated in N2 media containing FGF2 for twenty-four hours. See Bottenstein et al., Growth of a rat neuroblastoma cell line in serum-free supplemented medium, Proc. Natl. Acad. Sci. USA 76(1) (1979) (describing components of N2 media). The cells were replaced with fresh N2 media (without FGF2) and apigenin was added. In all experiments, 5 mM apigenin dissolved in DMSO was used. As a positive control for neuronal differentiation, N2 media containing retinoic acid (RA) and forskolin (FSK) was used. As a negative control, N2 media and the equivalent amount of DMSO or N2 was used. Either a NeuroD luciferase reporter assay (purchased from Promega, cat. No. e-1980, Dual-Luciferase Reporter 1000 Assay System) was performed two days later or immunohistochemistry was performed four days later. The immunohistochemical analysis of the apigenin-treated and control cells was performed by fixing and staining the cells after four days with lineage-specific markers (Tuj 1 for neurons, GFAP for astrocytes, and RIP for oligodendrocytes). Tuj 1 is a neuron-specific class III beta-tubulin used as a marker for new neurons. GFAP (glial fibrillary acidic protein), an intermediate-filament protein which is expressed almost exclusively in the astrocytes of the central nervous system, is used as a marker for new astrocytes. RIP is a monoclonal antibody used as an early marker of developing oligodendrocytes.

ERKs = assay: Western blot of phosphorylated signaling mediators; type: cell-based; conditions: adult neural progenitor cells; negative controls show the same results
Procedure: Adult neural progenitor cells were grown in proliferating conditions (N2 containing FGF2) in six-well plates for at least twenty-four hours. Before collecting cell lysates, the media was removed and replaced with DMEM/F12 for two hours (DMEM/F12 is defined media which lacks insulin and FGF2, two factors known to trigger various cell signaling pathways). In this key “starvation” step, the activation of various downstream mediators returned to steady-state levels. Cells were starved for two hours and the time zero data were collected. One of the following was added and the lysates collected at various time-points: (1) N2 only or (−) DMSO (negative control); (2) (+) DMSO (also a negative control); (3) apigenin; or (4) RA+FSK (positive control). Two time-course experiments were then carried out. The first was an early time-course to measure the acute effects of apigenin at zero minutes, ten minutes, thirty minutes, two hours, six hours, and twenty-four hours. The second experiment was a late time-course to measure long-term effects of apigenin at zero, one, two, three, and four days; the results of this experiment are not discussed here. Cell lysates were then loaded and transferred to Western Blots and the membranes hybridized with antibodies against the phosphorylated and unphosphorylated forms of each protein. The data results with the unphosphorylated form of the protein are not discussed here. The data discussed with respect to the phosphorylated protein are representative of at least three independent experiments and are normalized to the unphosphylated forms (internal control).

NeuroD = NeuroD luciferase reporter assay; type: cell-based; conditions: 5 mM apigenin; cells first allowed to proliferate with FGF2 for twenty-four hours; 2-day treatment
Procedure: Adult neural progenitor cells were plated in N2 media containing FGF2 for twenty-four hours. See Bottenstein et al., Growth of a rat neuroblastoma cell line in serum-free supplemented medium, Proc. Natl. Acad. Sci. USA 76(1) (1979) (describing components of N2 media).
The cells were replaced with fresh N2 media (without FGF2) and apigenin was added. In all experiments, 5 mM apigenin dissolved in DMSO was used. As a positive control for neuronal differentiation, N2 media containing retinoic acid (RA) and forskolin (FSK) was used. As a negative control, N2 media and the equivalent amount of DMSO or N2 was used. Either a NeuroD luciferase reporter assay (purchased from Promega, cat. No. e-1980, Dual-Luciferase Reporter 1000 Assay System) was performed two days later or immunohistochemistry was performed four days later. […]

[2] = 5 mM apigenin, cells first proliferating in FGF2, four days

In the case of `O=c1cc(-c2ccc(O)cc2)oc2cc(O)cc(O)c12` [apigenin], the “number of dividing cells (BrdU+) in the dentate gyrus” value (dentate gyrus; non-runners, vs control non-runners and apigenin 12.5 mg/kg non-runners, p<0.01) was “significant increase in the number of dividing cells”, the “number of dividing cells (BrdU+) in the dentate gyrus” value (dentate gyrus; runners, vs running control, p<0.05) was “significantly more dividing cells” and the “number of dividing cells (BrdU+) in the dentate gyrus, overall statement” value (dentate gyrus) was “increases”. The “number of dividing cells (BrdU+) in the dentate gyrus, overall statement” value (dentate gyrus; listed as Apigenin) was “increased BrdU labeling in both running and non-running groups”, the “difference between injection groups during novel testing” value (mice; 25 mg/kg i.p. for 7 days vs Tween 80:0.9% NaCl control) was “No significant differences” and the “preference for the novel object (object exploration time)” value (mice; 25 mg/kg i.p. for 7 days, T-test t=0.0008) was “significant preference for the novel object”. The “astrocyte (GFAP) differentiation” value [1, 2] was 1-5%, the “oligodendrocyte (RIP) differentiation” value [1, 2] was 1-5% and the “percentage of Tuj 1-positive neurons” value ([1]; 5 mM apigenin, directly plated into N2 media without FGF2, four days) was 5 to 30%. For the same compound, the “difference in Tuj 1 or Map2ab-positive neurons with or without FGF-2 pre-treatment” value ([1]; repeated experiments) was “no significant difference”, the “phosphorylation of ERKs” value (ERKs) was “non-specific effects” and the “NeuroD-activation (luciferase) as compared to activation by RA+FSK” value (NeuroD) was “two-fold higher”.
